According to patent publication US5593982A, “Cyclopentanperhydrophenanthren-17β-(3-furyl)-3-derivatives and pharmaceutical compositions comprising same for the treatment of cardiovascular disorders” (Sigma-Tau Industrie Farmaceutiche Riunite S.p.A., priority 1992, dated 1997):
Where two headings read alike, the source gives them in different places.

How the values were obtained:
[1] = molecular target: T1, purified Na^+,K^+ -ATPase (Canis lupus familiaris, UniProt P50997); assay: inhibition of the activity of the purified Na+,K+-ATPase measured as % of hydrolysis of 32P-ATP; assay type: biochemical
T1 construct: from tissue; mammalian kidney outer medulla by the cited Jorgensen 1974 method (own knowledge)
Excerpt: (§1) To test the affinity for the receptor site of the Na^+,K^+ -ATPase and the agonist or antagonist activity on the enzyme, the following tests were used: a) displacement of the specific ^3 H-ouabain binding from the Na^+,K^+ -ATPase receptor purified according to Jorghensen (Jorghensen P., BBA, 1974, 356, 36) and Erdmann (Erdmann E. et al., Arzneim. Forsh., 1984, 34, 1314); b) inhibition of the activity of the purified Na^+,K^+ -ATPase measured as % of hydrolysis of ^32 P-ATP in presence and in absence of the tested compound (Mall F. et al., Biochem. Pharmacol., 1984, 33, 47).

[2] = tested on: hypertensive MHS rats; assay: systolic blood pressure and heart rate in hypertensive MHS rats (indirect tail-cuff method); assay type: in vivo, rat (MHS); conditions: 20 mg/Kg/os daily for ten days in METHOCEL 0.5% w/v, 7 rats; for SBP (systolic blood pressure): controls 171 ± 4.5; for HR (heart rate): controls 384 ± 11.0
Method: The ability of these compounds to lower blood pressure in adult hypertensive MHS rats was tested by the following method: systolic blood pressure (SBP) and heart rate (HR) were measured by an indirect tail-cuff method in three-month old hypertensive MHS rats before beginning treatment (basal values). The rats were then subdivided in two groups of 7 animals each, one receiving the compound and the other, the control group, receiving only the vehicle. The compound, suspended in METHOCEL® 0.5% (w/v), for ten days, was administered daily by mouth. SBP and HR were measured daily 6 and 24 hours after the treatment. When ten-day treatment washout had been under way for at least two days, whether the treatment maintains SBP low or re-establish the basal values was verified. The affinity and the inhibitory activity of some ethers and of the reference compound (II-a) in the two tests are shown in the following table: […]

[3] = molecular target: T2, Na^+,K^+ -ATPase receptor (Canis lupus familiaris, UniProt P50997); assay: displacement of the specific 3H-ouabain binding from the purified Na+,K+-ATPase receptor
T2 construct: from tissue; mammalian kidney outer medulla by the cited Jorgensen 1974 method (own knowledge)
Excerpt: as §1

[4] = hydrolysis of 32P-ATP, purified Na+,K+-ATPase, read-out: Inhibitory Activity log IC50 (converted)
[5] = displacement of specific 3H-ouabain binding, purified Na+,K+-ATPase, read-out: Binding 3H-Ouab. Displacement log IC50 (converted)

| Structure (SMILES) | IC50 [1, 4] [nM] | SBP (systolic blood pressure) [2] [mm Hg] | HR (heart rate) [2] [beats/min.] | IC50 [3] [nM] | IC50 [1] [nM] | IC50 [3, 5] [nM] |
| --- | --- | --- | --- | --- | --- | --- |
| C[C@]12CC[C@H](OCCCN)C[C@H]1CC[C@@H]1[C@@H]2CC[C@]2(C)[C@@H](c3ccoc3)CC[C@]12O [Comp. I-ab, 3β-(3-Aminopropoxy)-17β-(3-furyl)-5β-androstan-14β-ol] | 1260 | 157 ± 4.9 | 371 ± 10.0 | 126 |  |  |
| C[C@]12CC[C@H](OCCCN3CCCC3)C[C@H]1CC[C@@H]1[C@@H]2CC[C@]2(C)[C@@H](c3ccoc3)CC[C@]12O [Comp. I-ae] |  | 154 ± 6.3 | 395 ± 8.7 | 126 | 794 |  |
| C[C@]12CC[C@H](OCCNCCN3CCCC3)C[C@H]1CC[C@@H]1[C@@H]2CC[C@]2(C)[C@@H](c3ccoc3)CC[C@]12O [Comp. I-ag, 3β-(2-(2-(1-Pyrrolidinyl)ethylamino)ethoxy)-17β-(3-furyl)-5β-androstan-14β-ol] |  | 162 ± 5.0 | 377 ± 9.0 | 158 | 1580 |  |
| C[C@]12CC[C@H](OCCSCCN3CCCC3)C[C@H]1CC[C@@H]1[C@@H]2CC[C@]2(C)[C@@H](c3ccoc3)CC[C@]12O [Comp. I-ai, 3β-(2-(2-(1-Pyrrolidinyl)ethylthio)ethoxy)-17β-(3-furyl)-5β-androstan-14β-ol] |  | 160 ± 4.7 | 390 ± 8.9 | 200 | 631 |  |
| C[C@]12CC[C@H](OCCNC(=N)N)C[C@H]1CC[C@@H]1[C@@H]2CC[C@]2(C)[C@@H](c3ccoc3)CC[C@]12O [Comp. I-al, 3β-(2-Guanidinoethoxy)-17β-(3-furyl)-5β-androstan-14β-ol nitrate] |  | 159 ± 5.0 | 393 ± 9.0 | 126 | 1580 |  |
| C[C@]12CC[C@H](SCCN)C[C@H]1CC[C@@H]1[C@@H]2CC[C@]2(C)[C@@H](c3ccoc3)CC[C@]12O [Comp. I-bv, 3β-(2-Aminoethylthio)-17β-(3-furyl)-5β-androstan-14β-oloxalate] |  | 161 ± 4.2 | 384 ± 6.7 |  | 2000 | 501 |
| C[C@]12CC[C@H](SCCN3CCCC3)C[C@H]1CC[C@@H]1[C@@H]2CC[C@]2(C)[C@@H](c3ccoc3)CC[C@]12O [Comp. I-bw, 3β-(2-(1-Pyrrolidinyl)ethylthio)-17β-(3-furyl)-5β-androstan-14β-ol] | 3980 | 157 ± 4.3 | 392 ± 10.0 |  |  | 794 |
| C[C@]12CC[C@H](SCCOCCN3CCCC3)C[C@H]1CC[C@@H]1[C@@H]2CC[C@]2(C)[C@@H](c3ccoc3)CC[C@]12O [Comp. I-by, 3β-(2-(2-(1-Pyrrolidinyl)ethoxy)ethylthio)-17β-(3-furyl)-5β-androstan-14β-ol] |  | 154 ± 6.3 | 395 ± 8.7 | 158 | 1000 |  |
| C[C@]12CC[C@H](O)C[C@H]1CC[C@@H]1[C@@H]2CC[C@]2(C)[C@@H](c3ccoc3)CC[C@]12O [Comp. II-a, 17β-(3-furyl)-5β-androstane-3β,14β-diol, reference compound] |  | 175 ± 4.1 | 382 ± 9.0 |  |  |  |
